Measurements from BigSolDB 2.1.

Structure (SMILES): c1ccc2c(c1)sc1ccccc12
- solubility (mole fraction) (in acetonitrile, 278.15 K): 0.00454
- solubility (mole fraction) (in acetonitrile, 283.15 K): 0.00611
- solubility (mole fraction) (in acetonitrile, 288.15 K): 0.00845
- solubility (mole fraction) (in acetonitrile, 293.15 K): 0.0128
- solubility (mole fraction) (in acetonitrile, 298.15 K): 0.0157
- solubility (mole fraction) (in acetonitrile, 303.15 K): 0.0189
- solubility (mole fraction) (in acetonitrile, 308.15 K): 0.0241
- solubility (mole fraction) (in acetonitrile, 313.15 K): 0.0321
- solubility (mole fraction) (in acetonitrile, 318.15 K): 0.0402
- solubility (mole fraction) (in acetonitrile, 323.15 K): 0.0506
- solubility (mole fraction) (in acetonitrile, 328.15 K): 0.0639
- solubility (mole fraction) (in ethanol, 278.15 K): 0.00347
- solubility (mole fraction) (in ethanol, 283.15 K): 0.00433
- solubility (mole fraction) (in ethanol, 288.15 K): 0.00529
- solubility (mole fraction) (in ethanol, 293.15 K): 0.00619
- solubility (mole fraction) (in ethanol, 298.15 K): 0.0075
- solubility (mole fraction) (in ethanol, 303.15 K): 0.00919
- solubility (mole fraction) (in ethanol, 308.15 K): 0.0105
- solubility (mole fraction) (in ethanol, 313.15 K): 0.0127
- solubility (mole fraction) (in ethanol, 318.15 K): 0.0148
- solubility (mole fraction) (in ethanol, 323.15 K): 0.0174
- solubility (mole fraction) (in ethanol, 328.15 K): 0.0206
- solubility (mole fraction) (in formic acid, 278.15 K): 0.000475
- solubility (mole fraction) (in formic acid, 283.15 K): 0.000578
- solubility (mole fraction) (in formic acid, 288.15 K): 0.000668
- solubility (mole fraction) (in formic acid, 293.15 K): 0.000756
- solubility (mole fraction) (in formic acid, 298.15 K): 0.000881
- solubility (mole fraction) (in formic acid, 303.15 K): 0.000995
- solubility (mole fraction) (in formic acid, 308.15 K): 0.00112
- solubility (mole fraction) (in formic acid, 313.15 K): 0.00126
- solubility (mole fraction) (in formic acid, 318.15 K): 0.0014
- solubility (mole fraction) (in formic acid, 323.15 K): 0.00157
- solubility (mole fraction) (in formic acid, 328.15 K): 0.00177
- solubility (mole fraction) (in isopropanol, 278.15 K): 0.00245
- solubility (mole fraction) (in isopropanol, 283.15 K): 0.00347
- solubility (mole fraction) (in isopropanol, 288.15 K): 0.00436
- solubility (mole fraction) (in isopropanol, 293.15 K): 0.00577
- solubility (mole fraction) (in isopropanol, 298.15 K): 0.00703
- solubility (mole fraction) (in isopropanol, 303.15 K): 0.00874
- solubility (mole fraction) (in isopropanol, 308.15 K): 0.0111
- solubility (mole fraction) (in isopropanol, 313.15 K): 0.0136
- solubility (mole fraction) (in isopropanol, 318.15 K): 0.0162
- solubility (mole fraction) (in isopropanol, 323.15 K): 0.0202
- solubility (mole fraction) (in isopropanol, 328.15 K): 0.0249
- solubility (mole fraction) (in methanol, 278.15 K): 0.00126
- solubility (mole fraction) (in methanol, 283.15 K): 0.00163
- solubility (mole fraction) (in methanol, 288.15 K): 0.00192
- solubility (mole fraction) (in methanol, 293.15 K): 0.00242
- solubility (mole fraction) (in methanol, 298.15 K): 0.0029
- solubility (mole fraction) (in methanol, 303.15 K): 0.00331
- solubility (mole fraction) (in methanol, 308.15 K): 0.00406
- solubility (mole fraction) (in methanol, 313.15 K): 0.00478
- solubility (mole fraction) (in methanol, 318.15 K): 0.00573
- solubility (mole fraction) (in methanol, 323.15 K): 0.00668
- solubility (mole fraction) (in methanol, 328.15 K): 0.00795
- solubility (mole fraction) (in n-butanol, 278.15 K): 0.00485
- solubility (mole fraction) (in n-butanol, 283.15 K): 0.00621
- solubility (mole fraction) (in n-butanol, 288.15 K): 0.00788
- solubility (mole fraction) (in n-butanol, 293.15 K): 0.00999
- solubility (mole fraction) (in n-butanol, 298.15 K): 0.0132
- solubility (mole fraction) (in n-butanol, 303.15 K): 0.016
- solubility (mole fraction) (in n-butanol, 308.15 K): 0.0192
- solubility (mole fraction) (in n-butanol, 313.15 K): 0.0242
- solubility (mole fraction) (in n-butanol, 318.15 K): 0.0303
- solubility (mole fraction) (in n-butanol, 323.15 K): 0.0381
- solubility (mole fraction) (in n-butanol, 328.15 K): 0.0458
